From patent US20260327204A1, “DEGRADERS OF CYCLIN-DEPENDENT KINASE 12/13, COMPOSITIONS, AND USES THEREOF” (ZHEJIANG UNIVERSITY, priority 2023, published 2026) come the findings set out here.

Structures are written as SMILES. Where two headings read alike, the source gives them in different places. Some results are limits rather than exact numbers.

Format in all cases: cell-based
Assay [1] deals with T1, CDK12 (Homo sapiens, UniProt Q9NYV4). Description: Reversal of CDK12 degradation by proteasome inhibitor MG132, Western blot. The settings on record: MDA-MB-231, 24 h treatment, MG132 added 12 h before sample collection. Details: endogenous in cells. The method, then: (§1) • Cell lines: HCT-116, Jurkat, or MDA-MB-231 • Culture medium: DMEM/RIPM-1640+10% Hyclone serum • Compound dissolution method: The compounds (small molecule conjugates as shown in Formulae 101-147, MG132) were dissolved in DMSO to prepare a 50 mM stock solution and then diluted to the corresponding concentrations.
T1 sequence (Q9NYV4 whole entry): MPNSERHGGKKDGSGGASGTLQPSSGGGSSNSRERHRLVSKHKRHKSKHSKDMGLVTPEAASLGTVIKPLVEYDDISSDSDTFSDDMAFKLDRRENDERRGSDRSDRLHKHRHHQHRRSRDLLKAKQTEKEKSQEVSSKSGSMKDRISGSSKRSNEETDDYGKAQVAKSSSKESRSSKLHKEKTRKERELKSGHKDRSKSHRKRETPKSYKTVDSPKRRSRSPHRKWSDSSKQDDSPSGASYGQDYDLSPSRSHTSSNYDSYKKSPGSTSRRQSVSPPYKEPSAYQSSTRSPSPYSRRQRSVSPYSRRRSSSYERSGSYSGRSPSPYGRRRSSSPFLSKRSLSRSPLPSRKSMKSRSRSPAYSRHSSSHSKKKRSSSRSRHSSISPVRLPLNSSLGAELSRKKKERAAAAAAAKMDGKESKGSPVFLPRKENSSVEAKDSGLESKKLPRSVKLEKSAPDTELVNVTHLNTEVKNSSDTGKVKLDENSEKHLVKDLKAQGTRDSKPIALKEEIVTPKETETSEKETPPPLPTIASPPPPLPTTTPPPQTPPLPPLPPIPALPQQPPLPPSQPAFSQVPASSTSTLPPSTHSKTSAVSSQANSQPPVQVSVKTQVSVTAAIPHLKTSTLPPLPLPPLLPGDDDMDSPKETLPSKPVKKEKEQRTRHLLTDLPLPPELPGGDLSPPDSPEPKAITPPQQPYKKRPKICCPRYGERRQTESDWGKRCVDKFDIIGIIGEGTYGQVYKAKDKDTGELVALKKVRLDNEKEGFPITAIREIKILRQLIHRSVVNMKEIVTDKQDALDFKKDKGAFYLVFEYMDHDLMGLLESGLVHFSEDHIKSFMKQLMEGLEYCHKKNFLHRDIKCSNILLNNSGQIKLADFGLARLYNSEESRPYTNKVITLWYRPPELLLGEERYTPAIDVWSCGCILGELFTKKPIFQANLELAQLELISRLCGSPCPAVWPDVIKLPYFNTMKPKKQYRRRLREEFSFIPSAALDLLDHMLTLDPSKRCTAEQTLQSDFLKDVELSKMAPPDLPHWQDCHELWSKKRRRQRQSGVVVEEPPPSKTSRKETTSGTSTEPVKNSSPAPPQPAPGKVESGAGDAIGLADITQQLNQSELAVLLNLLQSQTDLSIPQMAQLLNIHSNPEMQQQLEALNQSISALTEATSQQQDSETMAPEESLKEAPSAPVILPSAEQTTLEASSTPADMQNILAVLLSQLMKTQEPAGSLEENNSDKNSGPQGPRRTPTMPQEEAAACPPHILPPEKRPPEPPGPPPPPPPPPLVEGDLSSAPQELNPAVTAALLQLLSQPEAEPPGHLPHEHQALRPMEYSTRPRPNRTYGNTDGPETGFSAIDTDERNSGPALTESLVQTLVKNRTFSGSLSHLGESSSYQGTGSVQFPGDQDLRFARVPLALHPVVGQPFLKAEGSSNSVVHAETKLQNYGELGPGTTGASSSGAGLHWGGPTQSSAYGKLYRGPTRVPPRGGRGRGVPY
T1 sequence (O75909 whole entry partner): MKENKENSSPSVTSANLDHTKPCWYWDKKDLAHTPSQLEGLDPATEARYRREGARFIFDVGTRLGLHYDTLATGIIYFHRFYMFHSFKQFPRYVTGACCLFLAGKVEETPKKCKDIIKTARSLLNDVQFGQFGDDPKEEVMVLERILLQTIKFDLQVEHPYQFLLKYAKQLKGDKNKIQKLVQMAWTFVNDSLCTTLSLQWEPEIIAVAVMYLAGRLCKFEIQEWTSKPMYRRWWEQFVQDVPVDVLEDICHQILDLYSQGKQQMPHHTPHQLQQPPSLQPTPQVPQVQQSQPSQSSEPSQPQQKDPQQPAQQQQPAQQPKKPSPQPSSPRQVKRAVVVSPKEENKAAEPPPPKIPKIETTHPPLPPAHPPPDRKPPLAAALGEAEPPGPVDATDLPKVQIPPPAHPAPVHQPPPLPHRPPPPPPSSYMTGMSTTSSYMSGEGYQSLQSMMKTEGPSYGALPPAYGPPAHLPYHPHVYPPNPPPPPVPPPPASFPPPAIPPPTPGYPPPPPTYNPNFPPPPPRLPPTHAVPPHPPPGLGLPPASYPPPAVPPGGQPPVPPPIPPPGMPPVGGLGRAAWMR
(§2) (3) Compound treatment: The 50 mM compound stock solution was diluted with cell culture medium to a final concentration of 0.01 μM-3 μM. Cells were incubated in a 37 °C incubator with 5% CO2 for 3 h-48 h. The DMSO group served as the negative control.
(In general: In western blotting, separated proteins are transferred to a membrane and probed.)

The target in assay [2] is T2, CDK13 (Homo sapiens, UniProt Q14004). Description: Reversal of CDK13 degradation by proteasome inhibitor MG132, Western blot. The note with it: MDA-MB-231, 24 h treatment, MG132 added 12 h before sample collection. Details: endogenous in cells. The method, then: as §1, §2
T2 sequence (Q14004 whole entry): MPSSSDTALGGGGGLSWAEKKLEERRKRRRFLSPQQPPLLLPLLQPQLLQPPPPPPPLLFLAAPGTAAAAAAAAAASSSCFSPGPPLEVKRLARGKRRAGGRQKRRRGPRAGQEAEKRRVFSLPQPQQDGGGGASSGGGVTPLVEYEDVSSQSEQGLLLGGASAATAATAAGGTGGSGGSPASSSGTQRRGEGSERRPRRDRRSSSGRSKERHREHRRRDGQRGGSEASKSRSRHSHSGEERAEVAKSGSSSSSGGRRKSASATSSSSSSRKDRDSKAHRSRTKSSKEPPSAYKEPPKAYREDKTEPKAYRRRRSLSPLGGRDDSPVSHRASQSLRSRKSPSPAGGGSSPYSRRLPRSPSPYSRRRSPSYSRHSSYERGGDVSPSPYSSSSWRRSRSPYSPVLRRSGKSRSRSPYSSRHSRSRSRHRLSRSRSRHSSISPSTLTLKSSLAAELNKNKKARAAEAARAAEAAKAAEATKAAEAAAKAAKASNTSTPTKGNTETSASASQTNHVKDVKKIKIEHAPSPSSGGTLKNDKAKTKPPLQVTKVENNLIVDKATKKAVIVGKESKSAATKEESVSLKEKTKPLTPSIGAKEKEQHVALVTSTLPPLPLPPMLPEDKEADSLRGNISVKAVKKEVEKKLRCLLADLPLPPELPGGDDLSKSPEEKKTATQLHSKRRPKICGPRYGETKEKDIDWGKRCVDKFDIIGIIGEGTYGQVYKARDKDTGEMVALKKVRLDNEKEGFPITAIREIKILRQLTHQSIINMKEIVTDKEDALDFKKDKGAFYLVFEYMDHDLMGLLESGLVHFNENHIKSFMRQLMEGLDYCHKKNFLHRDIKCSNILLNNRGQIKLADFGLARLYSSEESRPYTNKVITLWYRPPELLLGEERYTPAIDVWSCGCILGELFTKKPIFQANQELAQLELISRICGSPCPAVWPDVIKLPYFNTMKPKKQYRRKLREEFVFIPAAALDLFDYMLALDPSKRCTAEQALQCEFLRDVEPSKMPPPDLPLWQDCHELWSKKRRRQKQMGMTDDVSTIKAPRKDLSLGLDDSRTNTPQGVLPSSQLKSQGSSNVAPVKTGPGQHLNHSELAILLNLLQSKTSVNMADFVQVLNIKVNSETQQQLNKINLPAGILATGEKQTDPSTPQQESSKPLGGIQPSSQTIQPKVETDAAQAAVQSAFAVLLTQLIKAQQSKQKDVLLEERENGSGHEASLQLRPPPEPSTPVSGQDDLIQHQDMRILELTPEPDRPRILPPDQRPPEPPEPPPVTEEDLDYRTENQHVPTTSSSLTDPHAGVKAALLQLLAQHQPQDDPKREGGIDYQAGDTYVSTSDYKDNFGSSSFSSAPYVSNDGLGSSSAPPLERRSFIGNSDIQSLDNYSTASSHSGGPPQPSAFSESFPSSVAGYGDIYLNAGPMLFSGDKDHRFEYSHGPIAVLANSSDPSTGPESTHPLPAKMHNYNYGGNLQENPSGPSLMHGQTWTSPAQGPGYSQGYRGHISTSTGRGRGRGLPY
T2 sequence (O75909 whole entry partner): as the sequence (O75909 whole entry partner) above
Another assay concerns CCNK. Description: Reversal of CCNK degradation by proteasome inhibitor MG132, Western blot. The settings on record: MDA-MB-231, 24 h treatment, MG132 added 12 h before sample collection. The method, then:
as §1, §2
In the figures, CDK12, CDK13, and CCNK are the target proteins under study, and β-Actin and GAPDH are the internal reference proteins. Internal reference proteins are used to indicate the total protein amount in each experimental group for quantitative analysis.

Assay [3] concerns the target T2, CDK13. Description: Western blot degradation of CDK13 (Example 3). Details: degradation of CDK12/13 protein in leukemia cells KASUMI-1, MV4-11, and Jurkat; endogenous in cells.
The target in assay [4] is T1, CDK12. Description: Western blot degradation of CDK12 (Example 3). Details: degradation of CDK12/13 protein in leukemia cells KASUMI-1, MV4-11, and Jurkat; endogenous in cells.
[5] abbreviates: DC50 classes, cell line not given, read-out: CDK13 degradation Activity.
Setting [6] is: DC50 classes, cell line not given, read-out: CDK12 degradation Activity.

As to `CC(=O)N(c1ccc(-c2ccc(N3CCN(c4ccc5c(c4)C(=O)N(C4CCC(=O)NC4=O)C5=O)CC3)nc2)cc1)[C@H]1CC[C@H](Nc2ncc3ccccc3n2)CC1` (stereo partly drawn) [Formula 103, N-(4-(6-(4-(2-(2,6-dioxopiperidin-3-yl)-1,3-dioxoisoindolin-5-yl)piperazin-1-yl)pyridin-3-yl)phenyl)-N-((1R,4R)-4-(quinazolin-2-ylamino)cyclohexyl)acetamide], the “reversal of CDK12 degradation by MG132” value at CDK12 [1] is “can reverse the degradation of CDK12/13 and CCNK”. Further, on CDK13 [2], the “reversal of CDK13 degradation by MG132” value was “can reverse the degradation of CDK12/13 and CCNK”. For the same compound, in the assay on CCNK, the “reversal of CCNK degradation by MG132” value is “can reverse the degradation of CDK12/13 and CCNK”. The DC50 at CDK13 [3] (setting [5]) is less than 100 nM; on CDK13 [3] (HCT116, colorectal cancer cells, read-out: CDK13 DC50) it was 19 nM; at CDK13 [3] (KASUMI-1, leukemia cells, read-out: CDK13 DC50), 18 nM; at CDK13 [3] (MDA-MB-231, breast cancer cells, read-out: CDK13 DC50) it was 30 nM; at CDK12 [4] (setting [6]) it was less than 100 nM; on CDK12 [4] (HCT116, colorectal cancer cells, read-out: CDK12 DC50), 22 nM. In addition, the DC50 is 15 nM on CDK12 [4] (KASUMI-1, leukemia cells, read-out: CDK12 DC50) and 16 nM on CDK12 [4] (MDA-MB-231, breast cancer cells, read-out: CDK12 DC50).

With `CC(=O)N(c1ccc(N2CCN(C(=O)/C=C/c3ccc4c(c3)C(=O)N(C3CCC(=O)NC3=O)C4=O)CC2)cc1)[C@H]1CC[C@H](Nc2ncc3ccccc3n2)CC1` (stereo partly drawn) [Formula 118, N-(4-(4-((E)-3-(2-(2,6-dioxopiperidin-3-yl)-1,3-dioxoisoindolin-5-yl)acryloyl)piperazin-1-yl)phenyl)-N-((1R,4R)-4-(quinazolin-2-ylamino)cyclohexyl)acetamide], the DC50 at CDK13 [3] (setting [5]) lay within 500 to 1000 nM; on CDK12 [4] (setting [6]), 1000 to 3000 nM.

For the compound `CC(=O)N(c1ccc(-c2cnc(N3CCN(c4cnn([C@H](C(=O)N5C[C@H](O)C[C@H]5C(=O)N[C@@H](C)c5ccc(-c6scnc6C)cc5)C(C)C)c4)CC3)nc2)cc1)[C@H]1CC[C@H](Nc2ncc3ccccc3n2)CC1` [Formula 154, (2S,4R)-4-hydroxy-1-((S)-3-methyl-2-(4-(4-(5-(4-(N-((1R,4R)-4-(quinazolin-2-ylamino)cyclohexyl)acetamido)phenyl)pyrimidin-2-yl)piperazin-1-yl)-1H-pyrazol-1-yl)butanoyl)-N—((S)-1-(4-(4-methylthiazol-5-yl)phenyl)ethyl)pyrrolidine-2-carboxamide], the DC50 was less than 100 nM at CDK13 [3] (setting [5]) and 100 to 500 nM at CDK12 [4] (setting [6]).

As for `CC(=O)N(c1ccc(-c2cncc(C(=O)N[C@H]3CCC(=O)NC3=O)c2)cc1)[C@H]1CC[C@H](Nc2ncc3ccccc3n2)CC1` [Formula 128, N—((S)-2,6-dioxopiperidin-3-yl)-5-(4-(N-((1R,4S)-4-(quinazolin-2-ylamino)cyclohexyl)acetamido)phenyl)nicotinamide], the DC50 on CDK13 [3] (setting [5]) and at CDK12 [4] (setting [6]) was 3000 to 10000 nM each time.

With `CC(=O)N(c1ccc(-c2cnn(C3CCN(c4ccc5c(c4)C(=O)N(C4CCC(=O)NC4=O)C5=O)CC3)c2)cc1)[C@H]1CC[C@H](Nc2ncc3ccccc3n2)CC1` (stereo partly drawn) [Formula 117, N-(4-(1-(1-(2-(2,6-dioxopiperidin-3-yl)-1,3-dioxoisoindolin-5-yl)piperidin-4-yl)-1H-pyrazol-4-yl)phenyl)-N-((1R,4R)-4-(quinazolin-2-ylamino)cyclohexyl)acetamide], the DC50 on CDK13 [3] (setting [5]) fell in the range of 500 to 1000 nM; on CDK12 [4] (setting [6]), 1000 to 3000 nM.

On to `CC(=O)N(c1ccc(-c2cnc(N3CCN(c4cc(C(C(=O)N5C[C@H](O)C[C@H]5C(=O)N[C@@H](C)c5ccc(-c6scnc6C)cc5)C(C)C)on4)CC3)nc2)cc1)[C@H]1CC[C@@H](Nc2ncc3ccccc3n2)CC1` (single isomer, unassigned) [Formula 156], for which the DC50 on CDK13 [3] (setting [5]) and at CDK12 [4] (setting [6]) was less than 100 nM throughout.

`CC(=O)N(c1ccc(-c2cnn(C3CCN(c4ccc5c(c4)C(=O)N(C4CCC(=O)NC4=O)C5=O)C3)c2)cc1)[C@H]1CC[C@H](Nc2ncc3ccccc3n2)CC1` (stereo partly drawn) [Formula 116, N-(4-(1-(1-(2-(2,6-dioxopiperidin-3-yl)-1,3-dioxoisoindolin-5-yl)pyrrolidin-3-yl)-1H-pyrazol-4-yl)phenyl)-N-((1R,4R)-4-(quinazolin-2-ylamino)cyclohexyl)acetamide]: the DC50 at CDK13 [3] (setting [5]) and on CDK12 [4] (setting [6]) was 3000 to 10000 nM each time.

For `CC(=O)N(c1ccc(-c2cnn(CC3CN(CC(=O)N[C@H](C(=O)N4C[C@H](O)C[C@H]4C(=O)N[C@@H](C)c4ccc(-c5scnc5C)cc4)C(C)(C)C)C3)c2)cc1)[C@H]1CC[C@H](Nc2ncc3ccccc3n2)CC1` (stereo in doubt) [Formula 140, (2S,4R)-1-((R)-3,3-dimethyl-2-(2-(3-((4-(4-(N-((1R,4R)-4-(quinazolin-2-ylamino)cyclohexyl)acetamido)phenyl)-1H-pyrazol-1-yl)methyl)azetidin-1-yl)acetamido)butanoyl)-4-hydroxy-N—((R)-1-(4-(4-methylthiazol-5-yl)phenyl)ethyl)pyrrolidine-2-carboxamide], the DC50 was 500 to 1000 nM at CDK13 [3] (setting [5]) and 1000 to 3000 nM on CDK12 [4] (setting [6]).

As for `CC(=O)N(c1ccc(N2CCN(c3ccc4c(c3)C(=O)N(C3CCC(=O)NC3=O)C4=O)CC2)cc1)[C@H]1CC[C@H](Nc2ncc3ccccc3n2)CC1` (stereo partly drawn) [Formula 104, N-(4-(4-(2-(2,6-dioxopiperidin-3-yl)-1,3-dioxoisoindolin-5-yl)piperazin-1-yl)phenyl)-N-((1R,4R)-4-(quinazolin-2-ylamino)cyclohexyl)acetamide], the DC50 on CDK13 [3] (setting [5]) and on CDK12 [4] (setting [6]) was 3000 to 10000 nM each time.

As for `CC(=O)N(c1ccc(-c2cnc(N3CCN(c4cc5c(cc4F)C(=O)N(C4CCC(=O)NC4=O)C5=O)CC3)nc2)cc1)[C@H]1CC[C@H](Nc2ncc3ccccc3n2)CC1` (stereo partly drawn) [Formula 114, N-(4-(2-(4-(2-(2,6-dioxopiperidin-3-yl)-6-fluoro-1,3-dioxoisoindolin-5-yl)piperazin-1-yl)pyrimidin-5-yl)phenyl)-N-((1R,4R)-4-(quinazolin-2-ylamino)cyclohexyl)acetamide], the DC50 on CDK13 [3] (setting [5]) and at CDK12 [4] (setting [6]) was 1000 to 3000 nM throughout.

In the case of `CC(=O)N(c1ccc(-c2cnc(OC3CCN(CC(=O)N[C@H](C(=O)N4C[C@H](O)C[C@H]4C(=O)N[C@@H](C)c4ccc(-c5scnc5C)cc4)C(C)(C)C)CC3)nc2)cc1)[C@H]1CC[C@H](Nc2ncc3ccccc3n2)CC1` [Formula 136, (2S,4R)-1-((S)-3,3-dimethyl-2-(2-(4-((5-(4-(N-((1R,4R)-4-(quinazolin-2-ylamino)cyclohexyl)acetamido)phenyl)pyrimidin-2-yl)oxy)piperidin-1-yl)acetamido)butanoyl)-4-hydroxy-N—((S)-1-(4-(4-methylthiazol-5-yl)phenyl)ethyl)pyrrolidine-2-carboxamide], the DC50 on CDK13 [3] (setting [5]) and on CDK12 [4] (setting [6]) was 500 to 1000 nM throughout.
